# Measured values from ChEMBL document CHEMBL1143306, “3-amido-4-anilinoquinolines as CSF-1R kinase inhibitors 2: Optimization of the PK profile” (Bioorg Med Chem Lett, 2009).
# Biological target: Macrophage colony-stimulating factor 1 receptor (Homo sapiens, UniProt P07333)
# Assay: Inhibition of CSF1R
# Conditions: not given
# Sequence of Macrophage colony-stimulating factor 1 receptor (P07333 whole entry): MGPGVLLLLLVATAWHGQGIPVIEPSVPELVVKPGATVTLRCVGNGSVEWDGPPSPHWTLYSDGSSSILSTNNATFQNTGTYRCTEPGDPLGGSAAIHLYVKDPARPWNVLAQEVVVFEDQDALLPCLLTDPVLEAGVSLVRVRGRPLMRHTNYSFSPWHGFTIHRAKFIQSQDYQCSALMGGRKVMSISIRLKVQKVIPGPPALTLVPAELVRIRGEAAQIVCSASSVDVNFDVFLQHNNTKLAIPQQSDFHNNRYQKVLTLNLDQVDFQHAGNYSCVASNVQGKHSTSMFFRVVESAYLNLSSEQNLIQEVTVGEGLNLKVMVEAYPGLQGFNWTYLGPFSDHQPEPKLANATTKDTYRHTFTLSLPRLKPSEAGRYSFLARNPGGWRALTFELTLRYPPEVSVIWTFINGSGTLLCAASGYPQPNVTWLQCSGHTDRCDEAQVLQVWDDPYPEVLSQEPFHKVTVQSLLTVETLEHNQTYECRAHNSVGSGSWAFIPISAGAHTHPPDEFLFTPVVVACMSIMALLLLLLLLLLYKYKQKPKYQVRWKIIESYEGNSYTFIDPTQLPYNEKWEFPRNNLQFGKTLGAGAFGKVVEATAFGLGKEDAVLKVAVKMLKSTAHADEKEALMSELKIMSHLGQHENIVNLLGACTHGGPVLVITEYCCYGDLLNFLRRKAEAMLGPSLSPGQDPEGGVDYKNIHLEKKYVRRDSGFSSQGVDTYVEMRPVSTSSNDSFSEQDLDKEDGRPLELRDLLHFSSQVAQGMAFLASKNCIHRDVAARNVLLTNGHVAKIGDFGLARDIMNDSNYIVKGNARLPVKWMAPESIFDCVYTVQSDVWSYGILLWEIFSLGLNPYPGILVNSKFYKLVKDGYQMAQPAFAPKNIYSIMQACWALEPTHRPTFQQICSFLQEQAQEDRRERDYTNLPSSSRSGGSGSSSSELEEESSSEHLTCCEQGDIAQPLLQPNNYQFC
row,IC50,SMILES
1,0.003 µM,COc1cc2ncc(C(N)=O)c(Nc3ccc(Cl)cc3Cl)c2cc1N1CCN(C)CC1
2,0.024 µM,COc1cc2c(Nc3ccc(Cl)c(Cl)c3)c(C(N)=O)cnc2cc1N1CCN(C)CC1
3,0.11 µM,CN1CCN(c2ccc3ncc(C(N)=O)c(Nc4ccc(F)cc4F)c3c2)CC1
4,0.008 µM,CN1CCN(c2ccc3ncc(C(N)=O)c(Nc4cccc(Cl)c4Cl)c3c2)CC1
5,0.054 µM,CN1CCN(c2cc3c(Nc4ccc(F)cc4F)c(C(N)=O)cnc3cc2F)CC1
6,0.006 µM,COc1cc2ncc(C(N)=O)c(Nc3ccc(F)cc3F)c2cc1N1CCN(C)CC1
7,0.129 µM,CN1CCN(c2ccc3ncc(C(N)=O)c(Nc4ccc(Cl)cc4Cl)c3c2)CC1
8,0.003 µM,CN1CCN(c2cc3c(Nc4cccc(Cl)c4Cl)c(C(N)=O)cnc3cc2F)CC1
9,0.059 µM,CN1CCN(c2ccc3ncc(C(N)=O)c(Nc4ccc(Cl)c(Cl)c4)c3c2)CC1

row,SMILES,IC50
1,COc1cc2c(Nc3ccc(F)cc3F)c(C(N)=O)cnc2cc1N1CCN(C)CC1,0.011 µM

# System: NIH3T3
# Assay: Antiproliferative activity against mouse 3T3 cells expressing human CSF1R after 72 hrs by Celltiter assay
# Type: functional
# Conditions: not given
row,SMILES,Activity
1,COc1cc2ncc(C(N)=O)c(Nc3ccc(Cl)cc3Cl)c2cc1N1CCN(C)CC1,0.64 µM
2,CCOc1cc2ncc(C(N)=O)c(Nc3cccc(Cl)c3F)c2cc1N1CCN(C)CC1,0.11 µM
3,COc1cc2c(Nc3ccc(Cl)c(Cl)c3)c(C(N)=O)cnc2cc1N1CCN(C)CC1,0.55 µM
4,CN1CCN(c2ccc3ncc(C(N)=O)c(Nc4ccc(F)cc4F)c3c2)CC1,3.9 µM
5,COCCOc1cc2ncc(C(N)=O)c(Nc3cc(C)ccc3F)c2cc1N1CCN(C)CC1,0.17 µM
6,CN1CCN(c2ccc3ncc(C(N)=O)c(Nc4cccc(Cl)c4Cl)c3c2)CC1,0.71 µM
7,CN1CCN(c2cc3c(Nc4ccc(F)cc4F)c(C(N)=O)cnc3cc2F)CC1,4.2 µM
8,COc1cc2ncc(C(N)=O)c(Nc3ccc(F)cc3F)c2cc1N1CCN(C)CC1,1 µM
9,CN1CCN(c2ccc3ncc(C(N)=O)c(Nc4ccc(Cl)cc4Cl)c3c2)CC1,8.9 µM
10,CN1CCN(c2cc3c(Nc4cccc(Cl)c4Cl)c(C(N)=O)cnc3cc2F)CC1,0.44 µM
11,CN1CCN(c2ccc3ncc(C(N)=O)c(Nc4ccc(Cl)c(Cl)c4)c3c2)CC1,2.7 µM
12,COc1cc2c(Nc3ccc(F)cc3F)c(C(N)=O)cnc2cc1N1CCN(C)CC1,0.72 µM

# System: not listed separately
# Assay: Aqueous solubility of the compound
# Type: physicochemical
# Conditions: buffer
row,solubility,SMILES
1,160 µM,COc1cc2ncc(C(N)=O)c(Nc3ccc(Cl)cc3Cl)c2cc1N1CCN(C)CC1
2,10 µM,CCOc1cc2ncc(C(N)=O)c(Nc3cccc(Cl)c3F)c2cc1N1CCN(C)CC1
3,970 µM,CN1CCN(c2ccc3ncc(C(N)=O)c(Nc4ccc(F)cc4F)c3c2)CC1
4,44 µM,CN1CCN(c2ccc3ncc(C(N)=O)c(Nc4cccc(Cl)c4Cl)c3c2)CC1
5,71 µM,CN1CCN(c2cc3c(Nc4ccc(F)cc4F)c(C(N)=O)cnc3cc2F)CC1
6,> 1000 µM,COc1cc2ncc(C(N)=O)c(Nc3ccc(F)cc3F)c2cc1N1CCN(C)CC1
7,180 µM,CN1CCN(c2ccc3ncc(C(N)=O)c(Nc4ccc(Cl)cc4Cl)c3c2)CC1
8,8 µM,CN1CCN(c2cc3c(Nc4cccc(Cl)c4Cl)c(C(N)=O)cnc3cc2F)CC1
9,720 µM,CN1CCN(c2ccc3ncc(C(N)=O)c(Nc4ccc(Cl)c(Cl)c4)c3c2)CC1

row,SMILES,solubility
1,COc1cc2c(Nc3ccc(F)cc3F)c(C(N)=O)cnc2cc1N1CCN(C)CC1,> 1000 µM

# System: not listed separately
# Assay: Plasma protein binding assessed as percentage unbound
# Conditions: not given
row,fraction unbound,SMILES
1,0.032,COc1cc2ncc(C(N)=O)c(Nc3ccc(Cl)cc3Cl)c2cc1N1CCN(C)CC1
2,0.071,CCOc1cc2ncc(C(N)=O)c(Nc3cccc(Cl)c3F)c2cc1N1CCN(C)CC1
3,0.26,CN1CCN(c2ccc3ncc(C(N)=O)c(Nc4ccc(F)cc4F)c3c2)CC1
4,0.16,COCCOc1cc2ncc(C(N)=O)c(Nc3cc(C)ccc3F)c2cc1N1CCN(C)CC1
5,0.046,CN1CCN(c2ccc3ncc(C(N)=O)c(Nc4cccc(Cl)c4Cl)c3c2)CC1
6,0.24,CN1CCN(c2cc3c(Nc4ccc(F)cc4F)c(C(N)=O)cnc3cc2F)CC1
7,0.25,COc1cc2ncc(C(N)=O)c(Nc3ccc(F)cc3F)c2cc1N1CCN(C)CC1
8,0.018,CN1CCN(c2ccc3ncc(C(N)=O)c(Nc4ccc(Cl)cc4Cl)c3c2)CC1
9,0.044,CN1CCN(c2cc3c(Nc4cccc(Cl)c4Cl)c(C(N)=O)cnc3cc2F)CC1
10,0.058,CN1CCN(c2ccc3ncc(C(N)=O)c(Nc4ccc(Cl)c(Cl)c4)c3c2)CC1

# System: not listed separately
# Assay: Bioavailability in rat at 3 mg/kg, iv and 10 mg/kg, po
# Type: ADME, organism-based
# Conditions: in vivo
row,bioavailability,SMILES
1,54%,CCOc1cc2ncc(C(N)=O)c(Nc3cccc(Cl)c3F)c2cc1N1CCN(C)CC1
2,21%,CN1CCN(c2ccc3ncc(C(N)=O)c(Nc4ccc(F)cc4F)c3c2)CC1
3,45%,COCCOc1cc2ncc(C(N)=O)c(Nc3cc(C)ccc3F)c2cc1N1CCN(C)CC1
4,13%,CN1CCN(c2cc3c(Nc4ccc(F)cc4F)c(C(N)=O)cnc3cc2F)CC1
5,90%,COc1cc2ncc(C(N)=O)c(Nc3ccc(F)cc3F)c2cc1N1CCN(C)CC1

# System: not listed separately
# Assay: Clearance in rat at 3 mg/kg, iv and 10 mg/kg, po
# Type: ADME, organism-based
# Conditions: in vivo
row,clearance,SMILES
1,4.32 L/h/kg,COc1cc2ncc(C(N)=O)c(Nc3ccc(Cl)cc3Cl)c2cc1N1CCN(C)CC1
2,1.44 L/h/kg,CCOc1cc2ncc(C(N)=O)c(Nc3cccc(Cl)c3F)c2cc1N1CCN(C)CC1
3,2.7 L/h/kg,CN1CCN(c2ccc3ncc(C(N)=O)c(Nc4ccc(F)cc4F)c3c2)CC1
4,3.6 L/h/kg,COCCOc1cc2ncc(C(N)=O)c(Nc3cc(C)ccc3F)c2cc1N1CCN(C)CC1
5,11.4 L/h/kg,CN1CCN(c2ccc3ncc(C(N)=O)c(Nc4cccc(Cl)c4Cl)c3c2)CC1
6,1.2 L/h/kg,CN1CCN(c2cc3c(Nc4ccc(F)cc4F)c(C(N)=O)cnc3cc2F)CC1
7,0.9 L/h/kg,COc1cc2ncc(C(N)=O)c(Nc3ccc(F)cc3F)c2cc1N1CCN(C)CC1
8,1.38 L/h/kg,CN1CCN(c2cc3c(Nc4cccc(Cl)c4Cl)c(C(N)=O)cnc3cc2F)CC1

# System: not listed separately
# Assay: Volume of distribution at steady state in rat at 3 mg/kg, iv and 10 mg/kg, po
# Type: ADME, organism-based
# Conditions: in vivo, read-out: Vdss
row,Vd,SMILES
1,8.7 L/kg,COc1cc2ncc(C(N)=O)c(Nc3ccc(Cl)cc3Cl)c2cc1N1CCN(C)CC1
2,1.9 L/kg,CCOc1cc2ncc(C(N)=O)c(Nc3cccc(Cl)c3F)c2cc1N1CCN(C)CC1
3,7.6 L/kg,CN1CCN(c2ccc3ncc(C(N)=O)c(Nc4ccc(F)cc4F)c3c2)CC1
4,4.7 L/kg,COCCOc1cc2ncc(C(N)=O)c(Nc3cc(C)ccc3F)c2cc1N1CCN(C)CC1
5,5.9 L/kg,CN1CCN(c2ccc3ncc(C(N)=O)c(Nc4cccc(Cl)c4Cl)c3c2)CC1
6,1.4 L/kg,CN1CCN(c2cc3c(Nc4ccc(F)cc4F)c(C(N)=O)cnc3cc2F)CC1
7,2.3 L/kg,COc1cc2ncc(C(N)=O)c(Nc3ccc(F)cc3F)c2cc1N1CCN(C)CC1
8,1.1 L/kg,CN1CCN(c2cc3c(Nc4cccc(Cl)c4Cl)c(C(N)=O)cnc3cc2F)CC1

# System: not listed separately
# Assay: Half life in rat at 3 mg/kg, iv and 10 mg/kg, po
# Type: ADME, organism-based
# Conditions: in vivo
row,half-life,SMILES
1,1.7 h,COc1cc2ncc(C(N)=O)c(Nc3ccc(Cl)cc3Cl)c2cc1N1CCN(C)CC1
2,1.1 h,CCOc1cc2ncc(C(N)=O)c(Nc3cccc(Cl)c3F)c2cc1N1CCN(C)CC1
3,1.9 h,CN1CCN(c2ccc3ncc(C(N)=O)c(Nc4ccc(F)cc4F)c3c2)CC1
4,4.2 h,COCCOc1cc2ncc(C(N)=O)c(Nc3cc(C)ccc3F)c2cc1N1CCN(C)CC1
5,0.7 h,CN1CCN(c2ccc3ncc(C(N)=O)c(Nc4cccc(Cl)c4Cl)c3c2)CC1
6,1.1 h,CN1CCN(c2cc3c(Nc4ccc(F)cc4F)c(C(N)=O)cnc3cc2F)CC1
7,1.8 h,COc1cc2ncc(C(N)=O)c(Nc3ccc(F)cc3F)c2cc1N1CCN(C)CC1
8,0.8 h,CN1CCN(c2cc3c(Nc4cccc(Cl)c4Cl)c(C(N)=O)cnc3cc2F)CC1

# System: Mus musculus
# Assay: Inhibition of phosphorylated CSF1R level in 3T3/CSF1R mutant cells xenografted nude mouse at 25 mg/kg, po after 2 hrs by ELISA
# Type: functional
# Conditions: not given
row,SMILES,inhibition in vivo at 25 mg/kg
1,CCOc1cc2ncc(C(N)=O)c(Nc3cccc(Cl)c3F)c2cc1N1CCN(C)CC1,100%
2,COCCOc1cc2ncc(C(N)=O)c(Nc3cc(C)ccc3F)c2cc1N1CCN(C)CC1,85%

# System: Mus musculus
# Assay: Inhibition of phosphorylated CSF1R level in 3T3/CSF1R mutant cells xenografted nude mouse at 25 mg/kg, po after 6 hrs by ELISA
# Type: functional
# Conditions: not given
row,SMILES,inhibition in vivo at 25 mg/kg
1,CCOc1cc2ncc(C(N)=O)c(Nc3cccc(Cl)c3F)c2cc1N1CCN(C)CC1,90%
2,COCCOc1cc2ncc(C(N)=O)c(Nc3cc(C)ccc3F)c2cc1N1CCN(C)CC1,70%
